The values below come from patent US10618935B2, “Antibody-drug conjugate (ADC) and method for forming the same” (Industrial Technology Research Institute, priority 2015, dated 2020).

Square brackets hold non-standard residues; d marks the D form. Peptide text beside a SMILES is read from it. * marks the point of attachment. Dolaproine = CO[C@@H]([C@@H]1CCCN1)[C@@H](C)C(=O)O; Dil = CC[C@H](C)[C@H](NC)[C@@H](CC(=O)O)OC; X2 = C[C@@H](N*)[C@@H](O)c1ccccc1; NMeV = CN[C@H](C(=O)O)C(C)C

Data set [1] concerns FaDu cells. The experiment in a line: Tumor growth inhibition test, FaDu subcutaneous tumor in C.B-17 SCID mice. The format is in vivo. Conditions: Day 8-29; 0.1 mg/kg intravenously once at Day 8; n=6.
Experimental: (§1) 1×10^6 of FaDu cells were subcutaneous injected to C.B-17 SCID mice at Day 0. The length and width of the tumor were measured and the tumor size was calculated by (length×width×width×½) (mm^3) and recorded. […] Tumor growth and body weight of the mice were observed twice every week.
A short description of data set [2]: Body weight and clinical symptoms in the tumor growth inhibition test. Particulars: FIG. 20.
Experimental: as §1

As to `CC[C@H](C)C([C@@H](CC(=O)N1CCC[C@H]1[C@H](OC)[C@@H](C)C(=O)NC(Cc1ccccc1)C(=O)NCCc1ccc(N)cc1)OC)N(C)C(=O)C(NC(=O)[C@H](C(C)C)N(C)C)C(C)C` (stereo partly shown) [APEA-AF], the “TGI (%) ± SEM” value in data set [1] is 11 ± 17%. The “weight loss or abnormal clinical symptoms after drug administration” value in data set [2] is recorded as “no weight losing or other significant abnormal clinical symptoms occurred”.

In the case of `CC[C@H](C)[C@@H]([C@@H](CC(=O)N1CCC[C@H]1[C@H](OC)[C@@H](C)C(=O)N[C@H](C)[C@@H](O)c1ccccc1)OC)N(C)C(=O)[C@@H](NC(=O)[C@@H](NC)C(C)C)C(C)C` [MMAE] (H-[NMeV]V[Dil][Dolaproine]-X2), the “TGI (%) ± SEM” value in data set [1] is 12 ± 6%. The “weight loss or abnormal clinical symptoms after drug administration” value in data set [2] was “no weight losing or other significant abnormal clinical symptoms occurred”.
